Test results from ChEMBL document CHEMBL1131878, “Synthesis and biological evaluation of 3-heteroaryloxy-4-phenyl-2(5H)-furanones as selective COX-2 inhibitors” (Bioorg Med Chem Lett, 1999).

What was measured:
[1] = target: Prostaglandin G/H synthase 1 (Homo sapiens, UniProt P23219); format: microsomes, U-937, Microsome
Description: Inhibition of COX-1 in U-937 (human lymphoma) cell microsomes.

Rattus norvegicus [2] = assay: Potency in rat paw edema assay; format: functional
[3] = Slow clearance (CL) was determined; format: ADME, organism-based; conditions: in vivo
[4] = Maximum concentration for the bioavailability at a dose of 20 mg/kg administered orally; format: ADME, organism-based; design: dose 20 mg/kg, route oral; conditions: in vivo, po
Rattus norvegicus [5] = organism: Rattus norvegicus; assay: Potency by rat hyperalgesia assay; format: functional
Rattus norvegicus [6] = organism: Rattus norvegicus; assay: Potency by rat adjuvant arthritis assay; format: functional
Rattus norvegicus [7] = organism: Rattus norvegicus; assay: Potency by rat pyrexia assay; format: functional

Chain of Prostaglandin G/H synthase 1 (P23219 whole entry): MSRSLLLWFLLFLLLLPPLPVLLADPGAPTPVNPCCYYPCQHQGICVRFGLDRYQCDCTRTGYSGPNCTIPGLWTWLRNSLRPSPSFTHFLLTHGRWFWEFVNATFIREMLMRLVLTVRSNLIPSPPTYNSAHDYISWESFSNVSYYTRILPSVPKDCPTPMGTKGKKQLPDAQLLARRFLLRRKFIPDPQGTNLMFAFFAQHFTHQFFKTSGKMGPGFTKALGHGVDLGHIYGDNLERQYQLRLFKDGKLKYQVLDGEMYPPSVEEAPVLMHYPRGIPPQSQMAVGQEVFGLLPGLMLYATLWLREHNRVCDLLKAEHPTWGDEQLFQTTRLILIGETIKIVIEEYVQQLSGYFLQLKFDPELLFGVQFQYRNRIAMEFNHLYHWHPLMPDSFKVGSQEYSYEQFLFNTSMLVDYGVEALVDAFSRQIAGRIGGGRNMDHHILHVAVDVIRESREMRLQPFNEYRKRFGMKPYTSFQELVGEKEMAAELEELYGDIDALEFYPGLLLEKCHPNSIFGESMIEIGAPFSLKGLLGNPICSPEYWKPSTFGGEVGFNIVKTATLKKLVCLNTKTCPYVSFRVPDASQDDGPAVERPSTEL

| Structure (SMILES) | IC50 [1] [µM] | other results |
| --- | --- | --- |
| CC1(C)OC(=O)C(Oc2ccncc2)=C1c1ccc(S(C)(=O)=O)cc1 | > 100 | – |
| CC1(C)OC(=O)C(Oc2ccc(F)cn2)=C1c1ccc(S(C)(=O)=O)cc1 | 4.6 | – |
| CC1(C)OC(=O)C(Oc2ccc3sccc3c2)=C1c1ccc(S(C)(=O)=O)cc1 | < 0.3 | – |
| CC1(C)OC(=O)C(Oc2cccc(Cl)n2)=C1c1ccc(S(C)(=O)=O)cc1 | > 10 | – |
| CC1(C)OC(=O)C(Oc2ccc(C3CC3)cn2)=C1c1ccc(S(C)(=O)=O)cc1 | 3 | – |
| CC1(C)OC(=O)C(Oc2cccnc2)=C1c1ccc(S(C)(=O)=O)cc1 | > 30 | – |
| CC1(C)OC(=O)C(Oc2ccccn2)=C1c1ccc(S(C)(=O)=O)cc1 | > 10 | ED50 (Rattus norvegicus [2]): > 10 mg/kg |
| CC1(C)OC(=O)C(Oc2ncc(Cl)cc2Cl)=C1c1ccc(S(C)(=O)=O)cc1 | 0.3 | – |
| CC1(C)OC(=O)C(Oc2ncnc3ccccc23)=C1c1ccc(S(C)(=O)=O)cc1 | > 10 | – |
| Cc1ccc(OC2=C(c3ccc(S(C)(=O)=O)cc3)C(C)(C)OC2=O)nc1 | 3 | – |
| CC1(C)OC(=O)C(Oc2cnccn2)=C1c1ccc(S(C)(=O)=O)cc1 | > 10 | – |
| CC1(C)OC(=O)C(Oc2ccc(Cl)cn2)=C1c1ccc(S(C)(=O)=O)cc1 | – | CL [3]: 4.8; ED50 (Rattus norvegicus [2]): 0.75 mg/kg; Cmax [4]: 16 µM |
| CC1(C)OC(=O)C(Oc2ccc3ccccc3n2)=C1c1ccc(S(C)(=O)=O)cc1 | 3 | – |
| CC1(C)OC(=O)C(Oc2ccc3[nH]ccc3c2)=C1c1ccc(S(C)(=O)=O)cc1 | 1 | – |
| CC1(C)OC(=O)C(Oc2ccc(Br)cn2)=C1c1ccc(S(C)(=O)=O)cc1 | 5.6 | ED50 (Rattus norvegicus [5]): 0.6 mg/kg; ED50 (Rattus norvegicus [6]): 0.2 mg/kg; ED50 (Rattus norvegicus [2]): 0.86 mg/kg; ED50 (Rattus norvegicus [7]): 0.3 mg/kg |
| CC1(C)OC(=O)C(Oc2ncccc2Cl)=C1c1ccc(S(C)(=O)=O)cc1 | 1 | – |
| CC1(C)OC(=O)C(Oc2cccc3cnccc23)=C1c1ccc(S(C)(=O)=O)cc1 | 3 | – |
| CC1(C)OC(=O)C(Oc2ncccn2)=C1c1ccc(S(C)(=O)=O)cc1 | > 10 | – |
| CS(=O)(=O)c1ccc(C2=C(c3ccccc3)C(=O)OC2)cc1 [ROFECOXIB] | – | ED50 (Rattus norvegicus [2]): 1.5 mg/kg |
